In patent publication US7268125B2 (Azevan Pharmaceuticals, Inc., priority 2001, dated 2007) one finds IC50 data, which are given here for 36 compounds.

What is called IC50 is the concentration at which inhibition is half-maximal.

This assay deals with T1, human V1a receptor (Homo sapiens, UniProt P37288).
T1 construct: host or cells: CHO cells
T1 sequence (P37288 whole entry): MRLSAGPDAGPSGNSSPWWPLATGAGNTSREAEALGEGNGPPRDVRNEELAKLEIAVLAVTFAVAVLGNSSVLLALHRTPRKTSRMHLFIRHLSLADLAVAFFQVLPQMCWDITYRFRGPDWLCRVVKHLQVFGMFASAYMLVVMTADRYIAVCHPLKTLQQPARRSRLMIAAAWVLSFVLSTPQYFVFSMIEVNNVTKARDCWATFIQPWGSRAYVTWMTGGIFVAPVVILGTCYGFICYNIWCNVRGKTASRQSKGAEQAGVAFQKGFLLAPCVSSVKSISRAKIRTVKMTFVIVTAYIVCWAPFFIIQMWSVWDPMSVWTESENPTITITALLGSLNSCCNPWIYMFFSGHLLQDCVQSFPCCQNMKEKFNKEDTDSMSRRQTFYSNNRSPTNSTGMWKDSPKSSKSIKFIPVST
In words: Human vasopressin V1a receptor binding assay. Particulars: hV1a cell line (CHO), competition with 1 nM 3H-AVP, 45 minutes at 37° C.; read-out: V1a BINDING AFFINITY (IC50 (nM)). The procedure:
Human Vasopression V1a Receptor Binding Assay.
A cell line expressing the human V1a receptor in CHO cells (henceforth referred to as the hV1a cell line) was obtained from Dr. Michael Brownstein, NIMH, Bethesda, Md., USA. The hV1a cDNA sequence is described by Thibonnier et al., Journal of Biological Chemistry, 269, 3304-3310 (1994), and the expression method was the same as described by Morel et al. (1992). The hV1a cell line was grown in alpha-MEM with 10% fetal bovine serum and 250 ug/ml G418 (Gibco, Grand Island, N.Y., USA). For competitive binding assay, hV1a cells were plated into 6-well culture plate at 1:10 dilution from a confluency flask, and maintained in culture for at least two days. Culture medium was then removed, cells were washed with 2 ml binding buffer (25 mM Hepes, 0.25% BSA, 1×DMEM, PH=7.0). To each well, 990 μl binding buffer containing 1 nM 3H-AVP was added, and followed by 10 μl series diluted Example compounds dissolved in DMSO. […] 100 nM cold AVP (Sigma) was used to assess non-specific binding. Cells were incubated for 45 minutes at 37° C., assay mixture was removed and each well was washed three times with PBS (pH=7.4). 1 ml 2% SDS was added per well and plates were let sit for 30 minutes. The whole content in a well was transferred to a scintillation vial. Each well was rinsed with 0.5 ml PBS which was then added to the corresponding vial. Scintillation fluid (Ecoscint, National Diagnostics, Atlanta, Ga.) was then added at 3 ml per vial. Samples were counted in a liquid scintillation counter (Beckman LS3801). IC50 values were calculated by Prism Curve fitting software.
All of the alkanedioic esters and amides exemplified in the foregoing examples were tested in this assay described of Example 201.
In the case of `O=C(NCc1cccc(C(F)(F)F)c1)C(C(=O)N1CCC(N2CCCCC2)CC1)N1C(=O)[C@@H](N2C(=O)OC[C@@H]2c2ccccc2)[C@H]1/C=C/c1ccccc1` (mixture of isomers) [Example 37], the IC50 came to 5.5 nM.

Regarding `CCCCN1CCN(C(=O)CCC(C(=O)NCc2cccc(C(F)(F)F)c2)N2C(=O)C(N3C(=O)OCC3c3ccccc3)C2C=Cc2ccccc2)CC1` (single isomer, unassigned) [Example 103], the half-maximal inhibitory concentration (IC50) was 0.81 nM.

With `O=C(NCc1cccc(C(F)(F)F)c1)[C@H](CC(=O)N1CCN(CCN2CCCC2)CC1)N1C(=O)[C@@H](N2C(=O)OC[C@@H]2c2ccccc2)[C@H]1/C=C/c1ccccc1` [Example 78], the 50% inhibitory concentration (IC50) is under 100 nM.

Consider `O=C(NCc1cccc(C(F)(F)F)c1)[C@H](CC(=O)N1CCN(C2CCCCC2)CC1)N1C(=O)[C@@H](N2C(=O)OC[C@@H]2c2ccccc2)[C@H]1/C=C/c1ccccc1` [Example 66], for which the half-inhibitory concentration (IC50) was about 50 nM.

Take `O=C(C[C@@H](C(=O)NCc1cccc(C(F)(F)F)c1)N1C(=O)[C@@H](N2C(=O)OC[C@@H]2c2ccccc2)[C@H]1/C=C/c1ccccc1)N[C@H]1CCN(Cc2ccccc2)C1` [Example 85]: the half-inhibitory concentration (IC50) is 5.87 nM.

Turning to `O=C(NCc1cccc(C(F)(F)F)c1)[C@@H](CCC(=O)N1CCN(CCc2ccccc2)CC1)N1C(=O)[C@@H](N2C(=O)OC[C@@H]2c2ccccc2)[C@H]1/C=C/c1ccccc1` [Example 136], the IC50 is 11 nM.

In the case of `O=C(NCc1cccc(C(F)(F)F)c1)[C@H](CCC(=O)N1CCN(CCN2CCOCC2)CC1)N1C(=O)[C@@H](N2C(=O)OC[C@@H]2c2ccccc2)[C@H]1/C=C/c1ccccc1` [Example 112], the half-maximal inhibitory concentration (IC50) was 1.34 nM.

In the case of `CC(C)(C)OC(=O)C(C(=O)NCc1cccc(C(F)(F)F)c1)N1C(=O)[C@@H](N2C(=O)OC[C@@H]2c2ccccc2)[C@H]1/C=C/c1ccccc1` (mixture of isomers) [Example 18, 2(RS)-(tert-Butoxycarbonyl)-2-[3(S)-(4(S)-phenyloxazolidin-2-on-3-yl)-4(R)-(2-styryl)azetidin-2-on-1-yl]acetic acid N-(3-trifluoromethylbenzyl)amide], the IC50 turned out to be 35 nM.

`O=C(NCc1cccc(C(F)(F)F)c1)C(C(=O)N1CCN(C2CCCCC2)CC1)N1C(=O)[C@@H](N2C(=O)OC[C@@H]2c2ccccc2)[C@H]1/C=C/c1ccccc1` (mixture of isomers) [Example 42]: the half-maximal inhibitory concentration (IC50) was under 20 nM.

`CC(C)N1CCN(C(=O)CCC(C(=O)NCc2cccc(C(F)(F)F)c2)N2C(=O)C(N3C(=O)OCC3c3ccccc3)C2C=Cc2ccccc2)CC1` (single isomer, unassigned) [Example 104]: the IC50 was 1.85 nM.

With `CC(C)N1CCN(C(=O)C(C(=O)NCc2cccc(C(F)(F)F)c2)N2C(=O)[C@@H](N3C(=O)OC[C@@H]3c3ccccc3)[C@H]2/C=C/c2ccccc2)CC1` (mixture of isomers) [Example 41], the 50% inhibitory concentration (IC50) was under 20 nM.

Take `O=C(NCc1cccc(C(F)(F)F)c1)[C@@H](CCC(=O)N1CCN(C2CCCCC2)CC1)N1C(=O)[C@@H](N2C(=O)OC[C@@H]2c2ccccc2)[C@H]1/C=C/c1ccccc1` [Example 139]: the IC50 is 9.5 nM.

`CCN(CC)CCN1CCN(C(=O)C[C@@H](C(=O)NCc2cccc(C(F)(F)F)c2)N2C(=O)[C@@H](N3C(=O)OC[C@@H]3c3ccccc3)[C@H]2/C=C/c2ccccc2)CC1` [Example 81]: the IC50 was under 100 nM.

As for `O=C(NCc1cccc(C(F)(F)F)c1)[C@@H](CCC(=O)N1CCC(N2CCCCC2)CC1)N1C(=O)[C@@H](N2C(=O)OC[C@@H]2c2ccccc2)[C@H]1/C=C/c1ccccc1` [Example 135], the concentration for half-maximal inhibition (IC50) is about 50 nM.

For `CCCCN1CCN(C(=O)CC[C@H](C(=O)NCc2cccc(C(F)(F)F)c2)N2C(=O)[C@@H](N3C(=O)OC[C@@H]3c3ccccc3)[C@H]2/C=C/c2ccccc2)CC1` [Example 137], the half-inhibitory concentration (IC50) worked out at 17 nM.

As for `O=C(CC[C@@H](C(=O)NCc1cccc(C(F)(F)F)c1)N1C(=O)[C@@H](N2C(=O)OC[C@@H]2c2ccccc2)[C@H]1/C=C/c1ccccc1)NC1CCN(Cc2ccccc2)CC1` [Example 107], the IC50 was under 50 nM.

As for `O=C(NCc1cccc(C(F)(F)F)c1)C(C(=O)NC1CCN(Cc2ccccc2)CC1)N1C(=O)[C@@H](N2C(=O)OC[C@@H]2c2ccccc2)[C@H]1/C=C/c1ccccc1` (mixture of isomers) [Example 39], the IC50 turned out to be 23 nM.

On to `O=C(NCc1cccc(C(F)(F)F)c1)[C@H](CCC(=O)N1CCN(CCC2CCCCC2)CC1)N1C(=O)[C@@H](N2C(=O)OC[C@@H]2c2ccccc2)[C@H]1/C=C/c1ccccc1` [Example 111], for which the 50% inhibitory concentration (IC50) was found to be 1.31 nM.

As for `CCCCN1CCN(C(=O)C(C(=O)NCc2cccc(C(F)(F)F)c2)N2C(=O)[C@@H](N3C(=O)OC[C@@H]3c3ccccc3)[C@H]2/C=C/c2ccccc2)CC1` (mixture of isomers) [Example 40], the 50% inhibitory concentration (IC50) worked out at 11 nM.

For `CC(C)N1CCN(C(=O)CC[C@H](C(=O)NCc2cccc(C(F)(F)F)c2)N2C(=O)[C@@H](N3C(=O)OC[C@@H]3c3ccccc3)[C@H]2/C=C/c2ccccc2)CC1` [Example 138], the half-inhibitory concentration (IC50) is 21 nM.

As to `O=C(NCc1cccc(C(F)(F)F)c1)[C@H](CC(=O)N1CCCN(Cc2ccccc2)CC1)N1C(=O)[C@@H](N2C(=O)OC[C@@H]2c2ccccc2)[C@H]1/C=C/c1ccccc1` [Example 82], the IC50 is under 50 nM.

Consider `O=C(NCc1cccc(C(F)(F)F)c1)[C@H](CCC(=O)N1CCN(Cc2ccccc2)CC1)N1C(=O)[C@@H](N2C(=O)OC[C@@H]2c2ccccc2)[C@H]1/C=C/c1ccccc1` [Example 95], for which the 50% inhibitory concentration (IC50) worked out at 1.76 nM.

Turning to `O=C(CC[C@@H](C(=O)NCc1cccc(C(F)(F)F)c1)N1C(=O)[C@@H](N2C(=O)OC[C@@H]2c2ccccc2)[C@H]1/C=C/c1ccccc1)NCc1cccnc1` [Example 109], the 50% inhibitory concentration (IC50) was about 100 nM.

On to `O=C(NCc1cccc(C(F)(F)F)c1)[C@H](CCC(=O)N1CCN(CC(=O)N2CCCC2)CC1)N1C(=O)[C@@H](N2C(=O)OC[C@@H]2c2ccccc2)[C@H]1/C=C/c1ccccc1` [Example 101], for which the IC50 is about 100 nM.

As for `O=C(NCc1cccc(C(F)(F)F)c1)C(C(=O)N1CCN(CCc2ccccc2)CC1)N1C(=O)[C@@H](N2C(=O)OC[C@@H]2c2ccccc2)[C@H]1/C=C/c1ccccc1` (mixture of isomers) [Example 38], the IC50 was under 25 nM.

With `CCCCN1CCN(C(=O)C[C@@H](C(=O)NCc2cccc(C(F)(F)F)c2)N2C(=O)[C@@H](N3C(=O)OC[C@@H]3c3ccccc3)[C@H]2/C=C/c2ccccc2)CC1` [Example 59], the IC50 was under 100 nM.

Regarding `CC(C)(C)OC(=O)CC[C@@H](C(=O)NCc1cccc(C(F)(F)F)c1)N1C(=O)[C@@H](N2C(=O)OC[C@@H]2c2ccccc2)[C@H]1/C=C/c1ccccc1` [Example 20, 2(S)-(tert-Butoxycarbonylethyl)-2-[3(S)-(4(S)-phenyloxazolidin-2-on-3-yl)-4(R)-(2-styryl)azetidin-2-on-1-yl]acetic acid N-(3-trifluoromethylbenzyl)amide], the half-inhibitory concentration (IC50) amounted to 35 nM.

`O=C(NCc1cccc(C(F)(F)F)c1)[C@H](CCC(=O)N1CCN(N2CCCC2)CC1)N1C(=O)[C@@H](N2C(=O)OC[C@@H]2c2ccccc2)[C@H]1/C=C/c1ccccc1` [Example 91]: the IC50 turned out to be 3.24 nM.

Regarding `O=C(C[C@@H](C(=O)NCc1cccc(C(F)(F)F)c1)N1C(=O)[C@@H](N2C(=O)OC[C@@H]2c2ccccc2)[C@H]1/C=C/c1ccccc1)NC1CCN(Cc2ccccc2)CC1` [Example 63], the IC50 amounted to 1.84 nM.

As for `CN(C)CCNC(=O)CC[C@@H](C(=O)NCc1cccc(C(F)(F)F)c1)N1C(=O)[C@@H](N2C(=O)OC[C@@H]2c2ccccc2)[C@H]1/C=C/c1ccccc1` [Example 100], the IC50 is under 100 nM.

Turning to `CN(C)CCCNC(=O)CC[C@@H](C(=O)NCc1cccc(C(F)(F)F)c1)N1C(=O)[C@@H](N2C(=O)OC[C@@H]2c2ccccc2)[C@H]1/C=C/c1ccccc1` [Example 106], the IC50 was about 100 nM.

On to `O=C(NCc1cccc(C(F)(F)F)c1)[C@H](CCC(=O)N1CCN(CC2CCCCC2)CC1)N1C(=O)[C@@H](N2C(=O)OC[C@@H]2c2ccccc2)[C@H]1/C=C/c1ccccc1` [Example 120], for which the 50% inhibitory concentration (IC50) is 0.75 nM.

For `CN1CCC(N2CCN(C(=O)CC[C@@H](C(=O)NCc3cccc(C(F)(F)F)c3)N3C(=O)[C@@H](N4C(=O)OC[C@@H]4c4ccccc4)[C@H]3/C=C/c3ccccc3)CC2)CC1` [Example 102], the 50% inhibitory concentration (IC50) was under 100 nM.

For the compound `O=C(CC[C@@H](C(=O)NCc1cccc(C(F)(F)F)c1)N1C(=O)[C@@H](N2C(=O)OC[C@@H]2c2ccccc2)[C@H]1/C=C/c1ccccc1)NCCN1CCCCC1` [Example 87], the IC50 is 15 nM.

With `CN(C)CCN(Cc1ccccc1)C(=O)CC[C@@H](C(=O)NCc1cccc(C(F)(F)F)c1)N1C(=O)[C@@H](N2C(=O)OC[C@@H]2c2ccccc2)[C@H]1/C=C/c1ccccc1` [Example 108], the IC50 was about 100 nM.

Take `O=C(NCc1cccc(C(F)(F)F)c1)[C@H](CC(=O)N1CCN(C2CCCC2)CC1)N1C(=O)[C@@H](N2C(=O)OC[C@@H]2c2ccccc2)[C@H]1/C=C/c1ccccc1` [Example 77]: the half-maximal inhibitory concentration (IC50) was under 100 nM.
